Measurements from patent US5556857A, “Disturbance-of-consciousness improving agent” (priority 1991, dated 1996).
Where two headings read alike, the source gives them in different places.

Assays:
[1] = system: mouse model of coma following head injury; test: Evaluation of disturbance-of-consciousness improving effect in a mouse model of coma following head injury; format: in vivo; conditions: Oral, 30 mg/kg
sigma receptor [2] = test: Binding affinity for the sigma receptor ([3H]-DTG binding test); design: species or system Wistar strain male rat; conditions: [3H]-DTG 3 nM, rat whole brain membrane, 25° C., 60 minutes; ± SED; read-out: Inhibitory activity IC50
Experimental: Binding affinity for the sigma receptor
A membrane fraction was prepared and a [^3 H]-1,3-di[2-tolyl]guanidine (DTG) binding test was performed, both by the method of Wettstein et al. [Wettstein, J. F., Romman, F. J., Rocher, M. N. and Junien, J. L., Psychopharmacology, 104, 157-163 (1991)]. Thus, a Wistar strain male rat was decapitated and the whole brain was excised and homogenized in 30 volumes of ice-cooled 50 mM Tris hydrochloride buffer (pH 7.4). The homogenate was then centrifuged at 4° C. and 50,000 g for 15 minutes. The sediment obtained was suspended in one volume of the same buffer as mentioned above and, after 45 minutes of incubation at 37° C., the suspension was centrifuged again. The sediment obtained was suspended in one volume of the same buffer and the suspension was stored frozen at -80° C. until use.
The binding experiment was performed as follows. […]
The filter was transferred to a vial and after addition of 5 ml of a liquid scintillation cocktail (Aquasol 2), the vial was allowed to stand in the dark for a predetermined time. The radioactivity was then measured using a scintillation counter. The amount of specific binding was determined by subtracting the binding amount in the presence of 10 μM haloperidol from the total binding amount. The IC50 values were calculated by computer analysis using the nonlinear least squares method.

sigma receptor [3] = test: Antagonistic experiment with sigma receptor antagonists on the disturbance-of-consciousness improving effect; format: in vivo; conditions: 10 mg/kg, alone
Experimental: Antagonistic experiment with sigma receptor antagonists
Whether the improving effect of sigma receptor agonists on impaired consciousness is due to their effect on specific receptors was investigated using test compounds 14 and 15 which are sigma receptor antagonists. […] Similarly, the disturbance-of-consciousness improving effect of test compounds 10 and 12 was inhibited by 30 mg of another sigma receptor antagonist test compound 15.

[4] = literature; cited from earlier work
[5] = literature (Brain and Nerve, 39:983-990, 1987); cited from earlier work
sigma receptors = conditions: cited from earlier work

SMILES: COc1cccc(N2CCN(CCCN3C(=O)CCc4c(Cl)cccc43)CC2)c1 [Example 2]
- RR time (time to recovery of righting reflex) [1]: 28 % of control
- SM time (time to recovery of spontaneous mobility) [1]: 28 % of control
- IC50 (sigma receptor [2]): 130 ± 16 nM

SMILES: COc1cccc2c1CCC(=O)N2CCCN1CCN(c2cccc(Cl)c2)CC1.Cl [Test compound 1, 1-{3-[4-(3-Chlorophenyl)-1-piperazinyl]propyl}-5-methoxy-3,4-dihydrocarbostyril hydrochloride]
- RR time (time to recovery of righting reflex) [1]: 20 % of control
- SM time (time to recovery of spontaneous mobility) [1]: 20 % of control
- IC50 (sigma receptor [2]): 340 ± 110 nM
- RR time (sigma receptor [3]): 32 % control
- SM time (sigma receptor [3]): 38 % control

SMILES: CC(=O)OCC[N+](C)(C)C [acetylcholine]
- side effects [4]: serious side effects

SMILES: O=C(CCCN1CCC(O)(c2ccc(Cl)cc2)CC1)c1ccc(F)cc1 [haloperidol]
- effect on impaired consciousness [5]: delays recovery from coma
- affinity for sigma receptors (sigma receptors): have affinities for these receptors
- side effects [4]: dystonia

SMILES: CN[C@@H](C)Cc1ccccc1 [methamphetamine]
- effect on impaired consciousness [5]: improves impaired consciousness
- side effects [4]: may produce an addictive behavior as well as schizophrenic responses such as hallucinations and delusion

SMILES: CC[C@@H](CO)NC(=O)[C@@H]1C=C2c3cccc4c3c(cn4C)C[C@H]2N(C)C1 [methysergide]
- effect on impaired consciousness [5]: improves impaired consciousness

SMILES: c1ccc(C2(N3CCCCC3)CCCCC2)cc1 [phencyclidine]
- affinity for sigma receptors (sigma receptors; literature): having an affinity for sigma receptors
- side effects [4]: induces schizophrenic responses such as hallucinations and delusion

SMILES: CNC(=O)Oc1ccc2c(c1)[C@]1(C)CCN(C)[C@@H]1N2C [physostigmine]
- effect on impaired consciousness [5]: effective in improving disturbances of consciousness at low non-toxic doses
